Earlier results, collected in US20230094837A1, “Biodegradable and Multifunctional Neural Block Devices” (The Penn State Research Foundation, priority 2020, published 2023).

Test system: femur mineral density
Conditions: rats, oral administration

SMILES: OC[C@@H](O)[C@H](O)[C@@H](O)CO [xylitol]
- effect on femur mineral density: increased femur mineral density
